Measured values published in ChEMBL document CHEMBL1201862, “PubChem BioAssay data set” (2004).
Activity calls are given as the source filed them.

Experiments:
[1] = molecular target: T1, Low molecular weight phosphotyrosine protein phosphatase (Homo sapiens, UniProt P24666); assay type: functional; details: read-out: IC50_Mean
T1 sequence (P24666 whole entry): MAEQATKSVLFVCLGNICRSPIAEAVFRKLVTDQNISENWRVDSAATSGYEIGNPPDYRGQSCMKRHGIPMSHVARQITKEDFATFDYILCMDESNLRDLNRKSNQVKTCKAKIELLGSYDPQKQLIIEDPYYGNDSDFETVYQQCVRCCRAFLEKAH

[2] = molecular target: T1, Low molecular weight phosphotyrosine protein phosphatase; assay type: functional; details: read-out: IC50_Mean; remark: listed apart in the source
[3] = test system: Vero; test: Vero cell toxicity, dose response, cytotoxicity control, plate reader, cherry-pick samples (AID 687020); assay type: functional, cell-based; details: Chlorocebus sabaeus
[4] = test system: HEK293; test: inhibitors of LMP1-driven NF-kB reporter, dose response, cell-based, HEK293, luciferase, cherry-pick (AID 588343); assay type: functional; details: Homo sapiens
[5] = test system: Vero; test: Vero cell cytotoxicity, cytotoxicity control for flavivirus capping enzyme inhibitors (AID 588742); assay type: functional; details: Chlorocebus sabaeus
[6] = Fluorescence-based cell-based high throughput dose response assay for inhibitors of the interaction of nucleotide-binding oligomerization domain containing 2 (NOD2) and the receptor-interacting serine-threonine kinase 2 (RIPK2).; assay type: functional; details: Homo sapiens
[7] = molecular target: T2, Interleukin-8 (Homo sapiens, UniProt P10145); test: Dose Response confirmation of uHTS small molecule hits for cystic fibrosis induced NFkb Inhibitors in a TNFa-induced IL8 counterscreen.; assay type: functional; details: read-out: IC50_Mean
T2 sequence (P10145 whole entry): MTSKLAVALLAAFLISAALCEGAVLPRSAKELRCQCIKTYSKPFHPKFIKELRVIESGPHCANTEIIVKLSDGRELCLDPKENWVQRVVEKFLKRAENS

[8] = molecular target: T2, Interleukin-8; test: Dose Response confirmation of uHTS small molecule hits for cystic fibrosis induced NFkb Inhibitors in a PAF-induced IL8 counterscreen.; assay type: functional; details: read-out: IC50_Mean
[9] = molecular target: Paired box protein Pax-8 (Homo sapiens, UniProt Q06710); test: inhibitors of PAX8-driven TPO luciferase reporter, dose response, RMG-I cells, cherry-pick (AID 687027); assay type: functional, cell-based;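 further: luciferase reporter driven by Pax8 target thyroperoxidase promoter measured by SteadyGlo luminescence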
[10] = molecular target: Delta-type opioid receptor (Homo sapiens, UniProt P41143); test: Counterscreen for agonists of heterodimerization of the mu 1 (OPRM1) and delta 1 (OPRD1) opioid receptors: Luminescence-based cell-based high throughput dose response assay to identify agonists of OPRD1 homodimerization. [Related pubchem assays (depositor defined):AID504326, AID504355, AID504692, AID504904, AID504905]; assay type: functional
Chain of Delta-type opioid receptor (P41143 whole entry): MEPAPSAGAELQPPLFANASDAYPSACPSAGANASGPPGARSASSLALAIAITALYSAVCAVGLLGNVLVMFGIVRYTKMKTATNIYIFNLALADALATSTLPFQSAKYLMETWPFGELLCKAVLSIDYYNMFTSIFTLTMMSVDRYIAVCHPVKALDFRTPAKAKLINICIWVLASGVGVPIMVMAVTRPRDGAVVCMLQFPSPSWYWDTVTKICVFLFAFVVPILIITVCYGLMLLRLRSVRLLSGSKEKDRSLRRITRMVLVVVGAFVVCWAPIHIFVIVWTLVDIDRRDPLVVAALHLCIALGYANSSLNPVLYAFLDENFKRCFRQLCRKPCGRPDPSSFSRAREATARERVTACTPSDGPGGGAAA

[11] = molecular target: Mu-type opioid receptor (Homo sapiens, UniProt P35372); test: Counterscreen for agonists of heterodimerization of the mu 1 (OPRM1) and delta 1 (OPRD1) opioid receptors: Luminescence-based cell-based high throughput dose response assay to identify agonists of OPRM1 homodimerization.; assay type: functional;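 further: U2OS cells expressing OPRM1 and beta-arrestin as split beta-galactosidase partners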
Chain of Mu-type opioid receptor (P35372 whole entry): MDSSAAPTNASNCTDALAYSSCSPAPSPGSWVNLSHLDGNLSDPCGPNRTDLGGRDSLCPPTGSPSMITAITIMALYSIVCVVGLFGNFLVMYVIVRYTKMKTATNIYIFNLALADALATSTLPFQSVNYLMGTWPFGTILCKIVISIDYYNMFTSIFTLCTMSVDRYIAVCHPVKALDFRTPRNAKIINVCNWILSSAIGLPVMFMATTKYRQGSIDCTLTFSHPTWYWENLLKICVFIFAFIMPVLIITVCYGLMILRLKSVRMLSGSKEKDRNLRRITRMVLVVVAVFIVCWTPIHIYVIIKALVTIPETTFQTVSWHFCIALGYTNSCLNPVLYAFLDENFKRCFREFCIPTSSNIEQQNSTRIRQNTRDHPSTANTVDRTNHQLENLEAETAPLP

[12] = molecular target: 5-hydroxytryptamine receptor 5A (Homo sapiens, UniProt P47898); test: Counterscreen for agonists of OPRM1-OPRD1 heterodimerization: luminescence-based cell-based high throughput dose response assay to identify agonists of 5-hydroxytryptamine (serotonin) 5A receptor (HTR5A). [Related pubchem assays (depositor defined):AID504326, AID504355, AID504692, AID504904, AID504905]; assay type: functional
[13] = Shn3 3'UTR reporter inhibitors, dose response, cell-based, Clone20 osteoblasts, firefly luciferase, cherry-picked (AID 624132); assay type: functional;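 further: firefly luciferase luminescence from reporter carrying the Shn3 3'UTR in osteoblasts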
[14] = HepG2 cell cytotoxicity, dose response, cytotoxicity control for Shn3 inhibitor project, CellTiter-Glo, cherry-picked (AID 624134); assay type: functional, cell-based
[15] = control 3'UTR Renilla luciferase suppression, dose response, counter-screen for Shn3 inhibitor project, cell-based, Clone20-Shn3RL, cherry-picked (AID 624133); assay type: functional
[16] = molecular target: SWI/SNF-related matrix-associated actin-dependent regulator of chromatin subfamily A member 2 (Homo sapiens, UniProt P51531); test: Luminescence-based cell-based high throughput dose response assay to identify activators of the function of SWI/SNF related, matrix associated, actin dependent regulator of chromatin, subfamily a, member 2 (SMARCA2, BRM).; assay type: functional
Chain of SWI/SNF-related matrix-associated actin-dependent regulator of chromatin subfamily A member 2 (P51531 whole entry): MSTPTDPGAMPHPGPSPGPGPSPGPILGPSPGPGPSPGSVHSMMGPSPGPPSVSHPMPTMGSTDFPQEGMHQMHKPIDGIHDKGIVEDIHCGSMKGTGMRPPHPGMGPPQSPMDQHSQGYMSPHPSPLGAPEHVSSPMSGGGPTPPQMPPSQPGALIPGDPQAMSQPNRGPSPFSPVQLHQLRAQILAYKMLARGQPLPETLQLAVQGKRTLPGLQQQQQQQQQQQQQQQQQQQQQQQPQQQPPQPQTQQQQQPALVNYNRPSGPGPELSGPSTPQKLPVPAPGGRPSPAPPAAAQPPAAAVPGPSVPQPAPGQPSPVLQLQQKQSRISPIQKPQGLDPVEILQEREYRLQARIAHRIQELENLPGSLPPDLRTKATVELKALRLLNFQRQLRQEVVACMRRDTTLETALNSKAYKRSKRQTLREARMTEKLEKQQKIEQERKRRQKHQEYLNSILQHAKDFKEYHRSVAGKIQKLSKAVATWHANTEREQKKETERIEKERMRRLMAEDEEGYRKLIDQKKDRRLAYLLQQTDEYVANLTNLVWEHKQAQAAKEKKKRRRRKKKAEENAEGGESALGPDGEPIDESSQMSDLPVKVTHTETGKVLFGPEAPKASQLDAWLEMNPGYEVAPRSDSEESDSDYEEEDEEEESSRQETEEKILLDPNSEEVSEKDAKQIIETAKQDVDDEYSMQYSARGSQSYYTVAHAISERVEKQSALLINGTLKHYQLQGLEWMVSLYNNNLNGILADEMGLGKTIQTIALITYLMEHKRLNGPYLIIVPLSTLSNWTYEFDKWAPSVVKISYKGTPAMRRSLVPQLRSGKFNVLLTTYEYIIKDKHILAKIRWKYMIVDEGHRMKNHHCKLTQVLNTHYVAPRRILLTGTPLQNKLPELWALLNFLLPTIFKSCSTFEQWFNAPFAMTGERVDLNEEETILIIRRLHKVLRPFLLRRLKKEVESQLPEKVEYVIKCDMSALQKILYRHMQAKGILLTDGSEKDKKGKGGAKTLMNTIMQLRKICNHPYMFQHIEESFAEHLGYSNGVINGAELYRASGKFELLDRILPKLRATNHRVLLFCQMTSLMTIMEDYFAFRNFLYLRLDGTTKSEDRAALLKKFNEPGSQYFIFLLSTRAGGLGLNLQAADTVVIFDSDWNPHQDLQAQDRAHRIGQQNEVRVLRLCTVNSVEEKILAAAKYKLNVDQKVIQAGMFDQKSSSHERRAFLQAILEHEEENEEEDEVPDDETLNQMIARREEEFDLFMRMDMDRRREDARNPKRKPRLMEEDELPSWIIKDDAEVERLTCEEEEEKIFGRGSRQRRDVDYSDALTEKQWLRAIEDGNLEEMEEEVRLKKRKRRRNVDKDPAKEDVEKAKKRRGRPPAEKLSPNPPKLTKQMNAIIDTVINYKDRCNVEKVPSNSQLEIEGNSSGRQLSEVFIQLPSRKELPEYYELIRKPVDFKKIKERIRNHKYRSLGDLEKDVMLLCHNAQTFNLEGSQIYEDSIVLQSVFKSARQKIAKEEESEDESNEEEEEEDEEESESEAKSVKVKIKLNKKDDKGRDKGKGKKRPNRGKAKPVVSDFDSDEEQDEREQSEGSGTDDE

[17] = Counterscreen for activators of the function of SWI/SNF related, matrix associated, actin dependent regulator of chromatin, subfamily a, member 2 (SMARCA2, BRM): Luminescence-based cell-based high throughput dose response assay to identify non-selective compounds using the VP16 reporter assay.; assay type: functional
[18] = molecular target: Beta-galactosidase (Escherichia coli, UniProt Q8VNN2); test: Dose response counterscreen for EBI2 assay utilizing the enzyme, b-galactosidase.; assay type: functional
Chain of Beta-galactosidase (Q8VNN2 whole entry): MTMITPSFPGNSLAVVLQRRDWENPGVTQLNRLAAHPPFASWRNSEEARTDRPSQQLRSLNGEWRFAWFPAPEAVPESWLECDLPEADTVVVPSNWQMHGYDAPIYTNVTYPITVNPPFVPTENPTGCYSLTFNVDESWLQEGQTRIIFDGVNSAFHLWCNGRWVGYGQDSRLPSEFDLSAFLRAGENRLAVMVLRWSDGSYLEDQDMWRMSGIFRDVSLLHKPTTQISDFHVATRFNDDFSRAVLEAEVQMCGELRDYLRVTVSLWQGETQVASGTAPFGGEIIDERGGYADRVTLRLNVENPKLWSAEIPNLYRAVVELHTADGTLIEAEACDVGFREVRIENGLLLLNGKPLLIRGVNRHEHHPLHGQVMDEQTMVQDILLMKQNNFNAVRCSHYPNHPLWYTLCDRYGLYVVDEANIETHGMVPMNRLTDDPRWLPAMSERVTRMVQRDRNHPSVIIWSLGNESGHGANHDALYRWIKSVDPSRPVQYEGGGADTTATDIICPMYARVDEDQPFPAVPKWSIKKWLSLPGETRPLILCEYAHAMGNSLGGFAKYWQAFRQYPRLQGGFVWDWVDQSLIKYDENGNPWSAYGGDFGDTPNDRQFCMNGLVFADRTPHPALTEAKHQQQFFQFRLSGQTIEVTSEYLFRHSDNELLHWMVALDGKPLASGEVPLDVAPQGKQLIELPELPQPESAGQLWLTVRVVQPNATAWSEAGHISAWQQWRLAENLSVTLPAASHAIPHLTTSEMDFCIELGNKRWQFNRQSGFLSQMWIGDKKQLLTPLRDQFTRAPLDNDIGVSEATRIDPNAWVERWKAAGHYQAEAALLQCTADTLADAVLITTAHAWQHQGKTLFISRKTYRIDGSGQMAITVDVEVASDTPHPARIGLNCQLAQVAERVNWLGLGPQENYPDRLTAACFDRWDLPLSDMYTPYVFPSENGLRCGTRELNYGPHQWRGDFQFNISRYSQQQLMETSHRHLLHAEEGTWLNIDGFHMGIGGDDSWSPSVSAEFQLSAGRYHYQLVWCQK

[19] = molecular target: T3, Heat shock factor protein 1 (Mus musculus, UniProt P38532); test: inhibition of MG132-induced HSE-luciferase signal, confirmation, cell-based, NIH3T3, luminescence, dose retest (AID 2382); assay type: functional;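 further: NIH3T3 fibroblasts with HSF1-driven luciferase reporter stressed by proteasome inhibitor MG132; luminescence from HSF1-driven luciferase expression after 8 hours of MG132 stress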
T3 sequence (P38532 whole entry): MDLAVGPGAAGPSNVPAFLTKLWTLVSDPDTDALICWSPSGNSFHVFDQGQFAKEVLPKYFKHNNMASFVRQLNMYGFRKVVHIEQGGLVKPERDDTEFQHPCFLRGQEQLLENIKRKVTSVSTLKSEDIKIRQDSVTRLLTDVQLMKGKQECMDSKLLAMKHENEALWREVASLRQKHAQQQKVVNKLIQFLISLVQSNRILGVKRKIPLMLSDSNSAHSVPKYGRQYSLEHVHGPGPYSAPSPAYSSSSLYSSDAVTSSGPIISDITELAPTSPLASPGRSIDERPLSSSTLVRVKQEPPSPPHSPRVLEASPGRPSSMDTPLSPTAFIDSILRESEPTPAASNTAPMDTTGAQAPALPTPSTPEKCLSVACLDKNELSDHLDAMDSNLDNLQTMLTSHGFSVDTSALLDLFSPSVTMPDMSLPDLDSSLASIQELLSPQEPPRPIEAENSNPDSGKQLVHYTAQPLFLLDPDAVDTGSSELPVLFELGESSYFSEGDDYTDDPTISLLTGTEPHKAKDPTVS

[20] = molecular target: Arf-GAP with SH3 domain, ANK repeat and PH domain-containing protein 1 (Homo sapiens, UniProt Q9ULH1); assay type: functional;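 further: biochemical fluorescence polarization dose–response screen measuring inhibition of ASAP1; ASAP1 GAP domain stimulating GTP hydrolysis by truncated human ARF1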
[21] = molecular target: Large T antigen (Simian virus 40, UniProt P03070); assay type: functional, Betapolyomavirus macacae;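 further: Confirmatory-stage PubChem screen for compounds that inhibit SV40 T antigen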
[22] = molecular target: T4, Hexokinase HKDC1 (Homo sapiens, UniProt Q2TB90); test: HKDC1 hexokinase inhibitors, dose response, biochemical, W721R variant (AID 504729); assay type: functional
T4 sequence (Q2TB90 whole entry): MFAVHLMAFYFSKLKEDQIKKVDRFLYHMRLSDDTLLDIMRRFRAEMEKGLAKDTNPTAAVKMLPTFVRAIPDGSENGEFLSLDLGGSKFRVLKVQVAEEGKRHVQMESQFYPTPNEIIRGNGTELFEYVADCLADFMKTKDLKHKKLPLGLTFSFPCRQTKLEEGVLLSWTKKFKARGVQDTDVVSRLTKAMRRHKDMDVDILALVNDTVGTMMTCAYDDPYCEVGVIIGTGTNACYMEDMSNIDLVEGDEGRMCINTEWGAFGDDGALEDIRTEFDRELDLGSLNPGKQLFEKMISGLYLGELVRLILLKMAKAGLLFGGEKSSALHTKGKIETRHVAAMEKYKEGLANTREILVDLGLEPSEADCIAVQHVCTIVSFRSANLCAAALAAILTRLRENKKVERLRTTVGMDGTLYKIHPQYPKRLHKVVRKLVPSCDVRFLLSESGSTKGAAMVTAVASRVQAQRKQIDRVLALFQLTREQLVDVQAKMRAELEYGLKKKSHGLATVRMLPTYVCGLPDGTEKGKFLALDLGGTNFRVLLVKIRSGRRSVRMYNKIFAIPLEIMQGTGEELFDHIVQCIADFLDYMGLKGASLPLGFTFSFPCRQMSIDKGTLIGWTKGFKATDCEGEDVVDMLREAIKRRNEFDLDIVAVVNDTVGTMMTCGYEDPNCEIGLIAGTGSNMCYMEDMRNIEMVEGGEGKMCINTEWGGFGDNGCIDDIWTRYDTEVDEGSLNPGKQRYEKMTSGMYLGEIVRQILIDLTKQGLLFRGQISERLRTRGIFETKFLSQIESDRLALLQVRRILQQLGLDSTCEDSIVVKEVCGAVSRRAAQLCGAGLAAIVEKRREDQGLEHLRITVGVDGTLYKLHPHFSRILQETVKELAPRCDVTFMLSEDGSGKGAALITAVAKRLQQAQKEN

[23] = molecular target: T5, Cysteine protease ATG4B (Homo sapiens, UniProt Q9Y4P1); assay type: functional;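 further: Fluorescence-based dose-response confirmation assay measuring inhibition of ATG4B activity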
T5 sequence (Q9Y4P1 whole entry): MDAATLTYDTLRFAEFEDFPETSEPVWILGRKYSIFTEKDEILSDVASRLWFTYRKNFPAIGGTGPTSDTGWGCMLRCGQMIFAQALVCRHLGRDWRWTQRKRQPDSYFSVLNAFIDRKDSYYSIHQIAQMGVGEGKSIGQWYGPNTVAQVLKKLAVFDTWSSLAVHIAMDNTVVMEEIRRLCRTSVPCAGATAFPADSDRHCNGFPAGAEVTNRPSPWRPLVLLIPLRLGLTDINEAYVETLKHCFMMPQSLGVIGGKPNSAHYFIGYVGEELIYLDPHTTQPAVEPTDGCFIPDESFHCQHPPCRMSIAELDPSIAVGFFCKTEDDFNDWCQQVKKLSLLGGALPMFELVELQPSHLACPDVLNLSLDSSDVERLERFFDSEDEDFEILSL

[24] = molecular target: Phospholipase A2 (Homo sapiens, UniProt P04054); assay type: functional;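 further: confirmatory dose-response counterscreen on phospholipase A2, testing hits that came from an ultra-high-throughput screen for ATG4B inhibitors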
[25] = molecular target: DNA (cytosine-5)-methyltransferase 1 (Homo sapiens, UniProt P26358); test: DNMT1 methyltransferase inhibitors, confirmation, biochemical, fluorescent molecular beacon (AID 602386); assay type: functional
Chain of DNA (cytosine-5)-methyltransferase 1 (P26358 whole entry): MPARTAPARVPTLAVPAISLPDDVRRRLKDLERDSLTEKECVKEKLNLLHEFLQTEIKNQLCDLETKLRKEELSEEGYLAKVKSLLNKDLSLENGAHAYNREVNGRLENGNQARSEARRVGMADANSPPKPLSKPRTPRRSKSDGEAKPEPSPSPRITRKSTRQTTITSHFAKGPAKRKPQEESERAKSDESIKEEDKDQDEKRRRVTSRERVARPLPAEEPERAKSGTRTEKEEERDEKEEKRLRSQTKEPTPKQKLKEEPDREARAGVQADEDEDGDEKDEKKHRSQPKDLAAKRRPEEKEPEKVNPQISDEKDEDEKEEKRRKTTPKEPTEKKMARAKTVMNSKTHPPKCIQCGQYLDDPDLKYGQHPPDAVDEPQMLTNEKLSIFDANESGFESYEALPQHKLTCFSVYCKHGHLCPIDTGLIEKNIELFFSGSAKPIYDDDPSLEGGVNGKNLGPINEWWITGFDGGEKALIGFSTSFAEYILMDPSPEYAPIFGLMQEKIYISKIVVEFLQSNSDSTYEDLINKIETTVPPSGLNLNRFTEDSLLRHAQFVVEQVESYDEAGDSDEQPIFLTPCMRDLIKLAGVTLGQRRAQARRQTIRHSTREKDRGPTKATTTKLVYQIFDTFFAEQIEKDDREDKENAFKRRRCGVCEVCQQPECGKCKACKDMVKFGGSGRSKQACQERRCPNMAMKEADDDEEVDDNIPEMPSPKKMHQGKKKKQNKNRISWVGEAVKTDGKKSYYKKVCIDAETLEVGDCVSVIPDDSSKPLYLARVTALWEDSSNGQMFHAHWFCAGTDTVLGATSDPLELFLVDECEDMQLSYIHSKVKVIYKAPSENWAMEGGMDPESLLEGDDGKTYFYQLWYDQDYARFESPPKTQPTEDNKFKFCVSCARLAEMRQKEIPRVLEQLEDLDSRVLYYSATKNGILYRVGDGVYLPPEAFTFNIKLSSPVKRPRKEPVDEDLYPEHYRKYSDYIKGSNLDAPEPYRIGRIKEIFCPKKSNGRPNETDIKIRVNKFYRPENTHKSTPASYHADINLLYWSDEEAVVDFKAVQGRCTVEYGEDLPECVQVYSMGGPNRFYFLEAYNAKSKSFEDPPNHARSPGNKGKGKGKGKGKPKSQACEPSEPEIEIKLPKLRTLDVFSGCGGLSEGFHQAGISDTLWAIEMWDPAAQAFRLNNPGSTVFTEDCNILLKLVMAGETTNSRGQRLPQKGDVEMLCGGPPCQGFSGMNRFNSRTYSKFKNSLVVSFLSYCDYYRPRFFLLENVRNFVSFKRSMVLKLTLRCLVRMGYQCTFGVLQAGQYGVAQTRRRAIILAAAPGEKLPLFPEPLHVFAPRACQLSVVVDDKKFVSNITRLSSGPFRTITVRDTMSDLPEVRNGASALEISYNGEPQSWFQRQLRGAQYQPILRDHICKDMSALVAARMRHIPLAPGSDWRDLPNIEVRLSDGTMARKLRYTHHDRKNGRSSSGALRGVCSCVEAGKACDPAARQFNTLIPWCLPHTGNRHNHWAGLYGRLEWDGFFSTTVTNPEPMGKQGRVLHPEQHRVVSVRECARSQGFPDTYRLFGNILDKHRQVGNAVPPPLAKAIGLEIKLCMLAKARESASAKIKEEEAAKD

In the case of `O=C(/C=C\Nc1ccc2c(c1)OCO2)c1ccc(Cl)s1`, the IC50 [1] is reported as > 80 µM (inactive) and the IC50 [2] is reported as 19.9 µM (active).

With `CCCn1c(NCc2ccc(N(C)C)cc2)nc2ccccc21` the AC50 [3] was 36.6 µM (active).

For `CC(=O)OC1CCC2(C)C(CCC3C4CC=C(C(C)=O)C4(C)OC(=O)CC32)C1` (centres undefined), the AC50 [4] was 1.65 µM (active), the CC50 [5] was 34.9 µM (active) and the IC50 [6] was 5.12 µM (active). The IC50 [7] was 1.12 µM (active), the IC50 [8] was 338 nM (active) and the AC50 [9] was 6.49 µM (active).

For `CN1CCN(Cc2nc3ccccc3c(=O)n2Cc2nc(-c3ccc4ccccc4c3)cs2)CC1`, the EC50 [10] was > 92.5 µM (inactive), the EC50 [11] was > 92.5 µM (inactive) and the EC50 [12] was > 92.5 µM (inactive). The AC50 [13] was 11 µM (active), the AC50 [14] was 8.34 µM (active) and the AC50 [15] was 11.7 µM (active). For the same compound, the EC50 [16] was > 91.2 µM (inactive) and the EC50 [17] was > 91.2 µM (inactive).

With `CCCCc1cc(=O)oc2cc(C)cc(OCC(=O)N3CCC(C(N)=O)CC3)c12` the AC50 [3] was 37.5 µM (active).

For `O=C(c1cc2cc(Br)ccc2[nH]1)N1CCC2(CC1)OCCO2`, the IC50 [18] was > 80 µM (inactive).

With `CCCCN(Cc1ccco1)C(=O)Cn1ncc2c(=O)oc3ccc(C)cc3c21` the EC50 [19] was > 195 µM (not active), the IC50 [20] was 53.2 µM (inactive) and the IC50 [18] was > 80 µM (inactive).

In the case of `Cc1cc(/C=C2\C(=O)NC(=O)N(c3ccc(Cl)cc3)C2=O)c(C)n1-c1sc2c(c1C#N)CCCC2`, the IC50 [21] is reported as 17.2 µM (active), the IC50 [22] is reported as 10.8 µM (active) and the IC50 [23] is reported as 14.7 µM (active). For the same compound, the IC50 [24] was 14.1 µM (active) and the IC50 [25] was 9.52 µM (active).

For `O=C(c1ccccc1)C1OC1C(=O)c1ccccc1` (centres undefined), the IC50 [7] was 6 µM (active) and the IC50 [8] was 2840 nM (active).
